For data set [1], the system named is B6 splenocytes. Nature of the data set: In vitro stimulation of splenocytes: [3H] thymidine incorporation (proliferation). It is filed as cell-based, mouse. The conditions noted are these: 72-h cultures, graded amounts. The protocol:
(§1) Splenocytes were prepared as described above and plated at 2.0×10^5 cells per well in 96-well plates in RPMI-1640 supplemented with 5% FCS, […] 2-mercaptoethanol, 2 mM glutamine, 1% sodium pyruvate, and antibiotics. Titrated volumes of GC, α-GalCer, and ALIB-97 diluted in DMSO were added at final concentrations of 100 ng, 1 μg, and 10 μg/ml. After 72 h of culture, 1 μCi of [^3H] thymidine (Amersham Biosciences) was added to each well, and the cells were cultured for an additional 16 to 18 h. Cells were harvested with a cell harvester (Tomtec, Orange, Conn.), and the uptake of radioactivity was measured with a β-plate reader. To evaluate IFN-γ secretion in vitro, supernatants were harvested after 90 h of culture with glycolipids and stored until the cytokine levels were measured by ELISA.
On the technique in general: Dividing cells build labelled thymidine or BrdU into new DNA.

Data set [2] relates to liver. The following applies: mice, cited from earlier work.
The test system of data set [3] is ob/ob mice. As to the kind of experiment: Serum ALT and AST (hepatic injury) in ob/ob mice. It is filed as in vivo. The conditions noted are these: day 30, 45 μg per os daily, vehicle group A 710. The protocol: The effect of β-glycolipids on liver injury was evaluated by serum aspartyl transaminase (AST) and alanine aminotransferase (ALT) activities, which were determined by a clinical chemistry analyzer, Reflovet Plus (Roche Diagnostics, GmbH, Mannheim, Germany).
(§2) Therefore, five groups of male C57BL/6 Ob/Ob mice were studied. Mice (6 per group) were fed (per os) daily for 4 weeks with 15 or 45 μg of GC (groups B and C, respectively) and 15 or 45 μg of ALIB-97 (groups D and E, respectively). Control mice (Group A) were administered vehicle only.

Data set [4] deals with mouse splenocytes. As to the kind of experiment: In vitro stimulation of splenocytes: supernatant IFN-γ by ELISA. It is filed as cell-based. The conditions noted are these: CD1d−/− splenocytes. The protocol:
as §1
For orientation: An ELISA detects its analyte on a solid surface through an enzyme-linked reagent.

For data set [5] the following is noted: humans, preliminary data; cited from earlier work.
Data set [6] deals with fat-associated T cells. As to the kind of experiment: Flow cytometry of T cell subsets in adipose tissue, stromal vascular cells and spleen of ob/ob mice. It is filed as in vivo. The following applies: 15 and 45 μg per os daily 4 weeks. The method, then: Splenocytes and intrahepatic lymphocytes were isolated as follows: livers and spleens were kept in RPMI-1640+FCS. Then spleens were crushed through a 70 μm nylon cell strainer (Falcon) and centrifuged (1250 rpm for 7 min) for the removal of cell debris. Red blood cells were lysed with 1 ml of cold 155 mM ammonium chloride lysis buffer and centrifuged (1250 rpm for 3 min). Splenocytes were resuspended with 1 ml RPMI+FCS. Cell viability by trypan blue staining was above 90%. For intrahepatic lymphocytes, livers were crushed through a stainless mesh (size 60, Sigma) and the cell suspension was placed in a 50-ml tube for 5 min. Lymphoprep (10 ml, Ficoll, Axis-Shield PoC AS, Oslo, Norway) was placed under similar volume of cell suspension in 50-ml tubes. Tubes were centrifuged at 1800 rpm for 18 min. Cells in the interface were collected and centrifuged at 1800 rpm for 10 min, to obtain a pellet of cells depleted of hepatocytes to a final volume of 250 μl. Approximately 1×10^6 cells/mouse liver, were recovered.
Adipose tissue (visceral fat pads) was minced and incubated in Krebs-Ringer bicarbonate buffer (3 mL/g adipose tissue) containing 10mM glucose and 2.5% bovine serum albumin, incubated with 840 U/g collagenase type I (Sigma, Rehovot, Israel)) at 37° C. for 1 hour. Cells were filtered twice through chiffon mesh (100 μm) and centrifuged 50 g for 5 min. Floating adipocytes were separated from pelleted S/V fraction. The infranatant fraction was removed and centrifuged at 200 g for five minutes to pellet the S/V cells.
For metabolic syndrome experiments, the following antibodies were used for flow cytometry: anti-CD4-Pacific Blue, anti-CD8-FITC, anti-IL-17-PE, anti CD25-PercP-Cy5.5 and anti FOX3p PE-Cy725 (all from eBioscience, San Diego, Calif.). Surface staining was performed by incubating cells with antibodies and anti-CD16/32 (blocks Fc, eBioscience) at 4° C. in FACS buffer containing PBS and 0.5% BSA, for 30 min. Cells were washed twice with FACS buffer, resuspended in FACS buffer, and analyzed by flow cytometry. Appropriate isotype controls were used in all experiments. Intracellular staining was performed using Foxp3 staining buffer kit (eBioscience, San Diego, Calif.). Cells were incubated with 1 ml Fixation/Permeabilization solution for 50 min, washed twice with Permeabilization buffer and incubated with anti-Foxp3 Ab for 50 min. Cells were then washed twice with Permeabilization buffer and resuspended with FACS buffer. Analysis was performed using a FACSCalibur instrument (Becton Dickinson, San Jose, Calif.) with FCS express V.3 software (DeNovo software, Los Angeles, Calif.).
as §2
A general note: Flow cytometry measures light scatter and fluorescence of single cells or particles in a stream.

The test system of data set [7] is JNK2. As to the kind of experiment: Western blot of liver extracts of ob/ob mice: JNK2 activation. It is filed as in vivo. The conditions noted are these: per os daily 4 weeks, 45 μg (group C). The protocol: (§3) For analysis of whole tissue lysates, snap-frozen liver pieces were homogenized in 0.75 ml of ice-cold PBS and centrifuged at 4° C. for 5 min in 2000 rpm. Pellets were lysed with 50 mM beta glycerophosphate, 1.5 mM EGTA, PH 7.3, 1 mM EDTA, PH 7.3, 1 mM DTT, 0.1 mM Sodium vanadate, 1% NP-40, and cocktails of protease and phosphatase (Sigma, Rehovot, Israel).
(§4) Lysates were centrifuged twice at 4° C. for 10 minutes in 14000 rpm. Equivalent amounts of lysates (15 μg/lane), determined by Bradford assay (Bio-Rad, Rehovot, Israel), were separated by sodium dodecyl sulfate polyacrylamide gel electrophoresis (SDS-PAGE) and transferred to nitrocellulose membranes.
(§5) For metabolic syndrome experiments, proteins were detected with JNK-2, Phospho JNK (Thr183/Tyr185), Akt and phospho Akt (Ser 473) antibodies (Cell Signaling Technologies, MA). β-actin (abcam, UK) was used as the loading control.
(§6) Blots were developed with horseradish peroxidase-conjugated secondary antibodies (Jackson Laboratories Bar Harbor, Me.) and Western Blot-Luminol Reagent (Santa Cruz Biotechnology, CA, USA). Cell counting and western Blot quantification was performed using total Lab (Phoretix, USA) software.
(§7) Therefore, five groups of male C57BL/6 Ob/Ob mice were studied. […]

Data set [8] deals with ob/ob mice. Nature of the data set: Fasting glucose and glucose tolerance test in ob/ob mice. It is filed as in vivo. The protocol:
Mice underwent a glucose tolerance test (GTT) on day 30 after overnight fasting. Glucose was administered orally (1.25 g per kg). Serum glucose measurements were performed on tail-vein blood every 15 min for 3 h. Glucose levels were measured by a standard glucometer.
as §2

The subject of data set [9] is AKT. As to the kind of experiment: Western blot of liver extracts of ob/ob mice: AKT activation. It is filed as in vivo. The following applies: per os daily 4 weeks, 45 μg (group C). The protocol: as §3, §4, §5, §6, §7

Take `CCCCCCCCCCCCCCCCCCCCCCCCCC(=O)N[C@@H](CO[C@H]1O[C@H](CO)[C@H](O)[C@H](O)[C@H]1O)[C@H](O)[C@H](O)CCCCCCCCCCCCCC` [αGalCer, α-Galctosyl-ceramide]: in data set [1], the “cell proliferation ([3H] thymidine incorporation)” value is “induced”. Besides, the hepatotoxicity result in data set [2] is on record as “hepatotoxic”.

Regarding “β-glucosylceramide [GC, reference compound]”, the “serum AST” value in [3] is 330 u/L. In data set [4], the IFN-γ secretion entry is on record as “capable of activating”. Moreover, the “safety and biological activity” value in data set [5] is “safe and biologically active”. Also, in [6], the “CD4+IL17+ / CD4+CD25+ ratio in adipose tissue” value was “reversal”, the “CD4IL17/CD4CD25FOXP3 ratio in the SVC” value is reported as “reduction”, the “CD4IL17/CD4CD25FOXP3 ratio in the spleen” value is “reduction” and the “CD4IL17/CD4CD25 ratio in the spleen” value was “reduction”. The “ratio between CD4+IL17+ and CD4+CD25+FOXP3+ cells in adipose tissue” value in data set [6] was “dose dependent shift towards tolerance”. Further, the “activation of JNK2” value in [7] was 60%. For the same molecule, in data set [2] (oral administration), the liver injury result is recorded as “not associated with liver injury”. Also, the “time at which the decrease in glucose levels (GTT, relative to time 0) reached statistical significance” value in data set [8] (day 30, 15 μg per os daily) is 120 min. Moreover, the “time at which the decrease in glucose levels (GTT, relative to time 0) reached statistical significance” value in data set [8] (day 30, 45 μg per os daily) came to 120 min. In addition, the “increase of AKT activation” value in data set [9] came to 43%.
